Reference: PMC9355812 (The Oncologist, 2022)

Columns and labels:
[1] = Paclitaxel plasma pharmacokinetics, cycle 1 day 1; format: in vivo, human
[2] = paclitaxel 100 mg/m^2; patients receiving PIs (nelfinavir, indinavir, other multiple protease inhibitors); Kaposi Sarcoma and HIV; cited from earlier work
[3] = Adverse events, NCI CTCAE version 4.0, worst grade in any cycle; format: in vivo, human; conditions: 2 patients, first vorinostat dose level (400 mg orally days 1-5 of each cycle)
[4] = Ritonavir cohort, cycle 1, paclitaxel 175 mg/m^2 IV with carboplatin

| differences in Cmax or AUCinf between the 2 cohorts ([1]; 6 patients, ritonavir vs non-ritonavir) | Cl [1, 4] [L/hr/m^2] | Time > C 0.5 µM [1, 4] [h] | duration spent at a paclitaxel concentration >0.05 µM ([1]; non-ritonavir cohort) [h] | duration spent at a paclitaxel concentration >0.05 µM ([1]; ritonavir cohort) [h] | SMILES | pharmacokinetic interaction with ritonavir ([1]; ritonavir at a boosting dose for ART in combination with paclitaxel) | Paclitaxel exposure as measured by AUC [2] [µM·h] | toxicity of PCb combination with vorinostat [3] |
| --- | --- | --- | --- | --- | --- | --- | --- | --- |
| no significant differences | 4.1 | 22.7 | 23.8 | 22.7 | CC(=O)O[C@H]1C(=O)[C@@]2(C)[C@H]([C@H](OC(=O)c3ccccc3)[C@]3(O)C[C@H](OC(=O)[C@H](O)[C@@H](NC(=O)c4ccccc4)c4ccccc4)C(C)=C1C3(C)C)[C@]1(OC(C)=O)CO[C@@H]1C[C@@H]2O [Paclitaxel] | no evidence for pharmacokinetic interaction | 5.5 ± 2.2 | – |
| – | – | – | – | – | O=C(CCCCCCC(=O)Nc1ccccc1)NO [vorinostat] | – | – | without prohibitive toxicity |
